Test results published in the CheMixHub ionic liquid set.

Assay: xn = mol fraction of the nth substance listed

CCCC[N+](CCCC)(CCCC)Cc1ccccc1.[Cl-] + NC(=O)CC[C@H](N)C(=O)O + O
electrical conductivity [S/m], 100 kPa, frequency 0.001 MHz
Conditions	293.15 K	298.15 K	303.15 K	308.15 K	313.15 K
x2 = 0.0001802, x1 = 1.802e-05	0.0331	0.0352	0.0382	0.041	0.0452
x2 = 0.0001803, x1 = 5.405e-05	0.0419	0.0441	0.0463	0.0496	0.0536
x2 = 0.0001804, x1 = 9.008e-05	0.0513	0.0542	0.0582	0.0612	0.0654
x2 = 0.0004504, x1 = 1.801e-05	0.0408	0.0453	0.0486	0.0523	0.0553
x2 = 0.0004507, x1 = 5.403e-05	0.0492	0.0543	0.057	0.0597	0.0642
x2 = 0.000451, x1 = 9.005e-05	0.0592	0.0641	0.067	0.069	0.0728
x2 = 0.0007205, x1 = 1.801e-05	0.0479	0.0557	0.0582	0.0614	0.0662
x2 = 0.0007209, x1 = 5.402e-05	0.0619	0.0683	0.0702	0.0724	0.0764
x2 = 0.0007213, x1 = 9.003e-05	0.0692	0.0768	0.0774	0.0796	0.0867
x2 = 0.0009904, x1 = 1.8e-05	0.0551	0.064	0.0692	0.071	0.0769
x2 = 0.000991, x1 = 5.4e-05	0.0713	0.0784	0.0819	0.0821	0.0806
x2 = 0.0009916, x1 = 9e-05	0.0768	0.0871	0.0876	0.0906	0.1
x2 = 0.00126, x1 = 1.8e-05	0.0646	0.0756	0.079	0.0819	0.0865
x2 = 0.001261, x1 = 5.399e-05	0.0809	0.0902	0.0923	0.0943	0.103
x2 = 0.001262, x1 = 8.998e-05	0.0911	0.098	0.0989	0.101	0.113
x2 = 0.00153, x1 = 1.799e-05	0.0733	0.0847	0.0896	0.0903	0.0994
x2 = 0.001531, x1 = 5.397e-05	0.0868	0.0975	0.103	0.105	0.116
x2 = 0.001532, x1 = 8.995e-05	0.099	0.106	0.108	0.109	0.119

viscosity [mPa·s], 100 kPa
Conditions	293.15 K	298.15 K	303.15 K	308.15 K	313.15 K
x2 = 0.0001802, x1 = 1.802e-05	0.961	0.921	0.884	–	–
x2 = 0.0001803, x1 = 5.405e-05	0.969	0.929	0.888	–	–
x2 = 0.0001804, x1 = 9.008e-05	0.98	0.939	0.9	–	–
x2 = 0.0004504, x1 = 1.801e-05	0.969	0.93	0.893	0.858	0.803
x2 = 0.0004507, x1 = 5.403e-05	0.978	0.938	0.896	0.863	0.808
x2 = 0.000451, x1 = 9.005e-05	0.99	0.949	0.909	0.869	0.817
x2 = 0.0007205, x1 = 1.801e-05	0.977	0.939	0.902	0.867	0.812
x2 = 0.0007209, x1 = 5.402e-05	0.987	0.947	0.906	0.872	0.818
x2 = 0.0007213, x1 = 9.003e-05	1	0.96	0.919	0.88	0.827
x2 = 0.0009904, x1 = 1.8e-05	0.985	0.948	0.912	0.877	0.823
x2 = 0.000991, x1 = 5.4e-05	0.996	0.957	0.917	0.882	0.827
x2 = 0.0009916, x1 = 9e-05	1.01	0.97	0.929	0.891	0.838
x2 = 0.00126, x1 = 1.8e-05	0.994	0.956	0.921	0.887	0.833
x2 = 0.001261, x1 = 5.399e-05	1.005	0.967	0.926	0.894	0.838
x2 = 0.001262, x1 = 8.998e-05	1.021	0.98	0.939	0.901	0.849
x2 = 0.00153, x1 = 1.799e-05	1.002	0.965	0.929	0.897	0.843
x2 = 0.001531, x1 = 5.397e-05	1.014	0.977	0.936	0.904	0.849
x2 = 0.001532, x1 = 8.995e-05	1.029	0.99	0.95	0.912	0.86

CCO + C[C@H](N)C(=O)[O-].C[N+](C)(C)CCO
100 kPa, x2 = 0
Conditions	viscosity [mPa·s]
288.13 K	1.15
289.34 K	1.12
290.55 K	1.1
291.74 K	1.06
292.92 K	1.03
294.1 K	1.01
295.28 K	0.98
296.45 K	0.96
297.63 K	0.93
298.8 K	0.9
299.98 K	0.88
301.16 K	0.85
302.33 K	0.82
303.51 K	0.8
304.68 K	0.77
305.86 K	0.73
307.04 K	0.71
308.21 K	0.68

CCCCCCCC[P+](CC)(CC)CC.Cc1ncc([N+](=O)[O-])[n-]1 + COCCOCCOCCOCCOC
viscosity [mPa·s], 100 kPa
Conditions	278.15 K	283.15 K	288.15 K	293.15 K	298.15 K	303.15 K	308.15 K	313.15 K	318.15 K	323.15 K
x2 = 0	3660	2240	1410	920	623	435	313	231	174	135
x2 = 0.036	2730	1700	1090	722	495	350	255	189	145	113
x2 = 0.067	1990	1270	829	559	390	280	206	155	120	95
x2 = 0.115	1470	955	636	438	310	227	170	130	101	81
x2 = 0.233	651	446	311	223	166	126	98	78	62	–
x2 = 0.3	375	262	187	137	103	80	64	51	–	–
x2 = 0.399	200	145	107	81	64	50	–	–	–	–
x2 = 0.5	113	86	66	51	–	–	–	–	–	–
x2 = 0.598	62	–	–	–	–	–	–	–	–	–

Cc1ncc(CO)c(CO)c1O.Cl + CCCC[n+]1ccn(C)c1.[Br-] + O
viscosity [mPa·s], 100 kPa
Conditions	x1 = 0.0002684, x2 = 0	x1 = 0.0005421, x2 = 0	x1 = 0.0008084, x2 = 0	x1 = 0.001085, x2 = 0	x1 = 0.001353, x2 = 0	x1 = 0.001621, x2 = 0
293.15 K	1.007	1.012	1.017	1.022	1.027	1.032
298.15 K	0.895	0.9	0.905	0.91	0.915	0.921
303.15 K	0.801	0.806	0.811	0.816	0.821	0.826
308.15 K	0.722	0.727	0.732	0.737	0.741	0.747
313.15 K	0.657	0.662	0.667	0.671	0.676	0.681

CC[n+]1ccccc1.O=S(=O)([N-]S(=O)(=O)C(F)(F)F)C(F)(F)F + O
viscosity [mPa·s], 101 kPa
Conditions	298.15 K	323.15 K	343.15 K	353.15 K
x2 = 0.005125	–	17.8	–	8.68
x2 = 0.08693	34.1	15.47	9.7	–

CCCCCC[n+]1ccn(C)c1C.O=S(=O)([N-]S(=O)(=O)C(F)(F)F)C(F)(F)F + CCCCCCCCCCCCCC[P+](CCCCCC)(CCCCCC)CCCCCC.O=S(=O)([N-]S(=O)(=O)C(F)(F)F)C(F)(F)F
Conditions	viscosity [mPa·s]
278.15 K, 100 kPa, x1 = 0.6	930

CC(=O)[O-].CCC[N+]1(C)CCN(C)CC1 + CC#N
Conditions	electrical conductivity [S/m]
298 K, 101 kPa, x2 = 0.791	1.76

CCCCn1cc[n+](C)c1.O=S(=O)([N-]S(=O)(=O)C(F)(F)F)c1ccc[cH-]1.[Fe+2].c1cc[cH-]c1 + CCCC[n+]1ccn(C)c1.O=S(=O)([N-]S(=O)(=O)C(F)(F)F)C(F)(F)F
Conditions	viscosity [mPa·s]
298.15 K, 100 kPa, x2 = 0.749	184.5

CCO + CCOP(=O)([O-])OCC.CC[n+]1ccn(C)c1
Conditions	viscosity [mPa·s]
318.15 K, 100 kPa, x2 = 0	0.75

CCO + CCCCCCCCCCCCCCCC[N+](C)(C)C.[Br-] + O
Conditions	electrical conductivity [S/m]
298.2 K, 101.3 kPa, x2 = 0, x1 = 0.05064	0.00019

CCC=C[n+]1ccn(C)c1C.O=[N+]([O-])c1cn[n-]c1 + COCCOCCOCCOCCOC
100 kPa
Conditions	viscosity [mPa·s]
278.15 K, x1 = 0.601	267
278.15 K, x1 = 0.952	4300
283.15 K, x1 = 0.9	1510
288.15 K, x1 = 0.9	864
288.15 K, x1 = 0.952	1210
293.15 K, x1 = 0.601	87
298.15 K, x1 = 0.701	121
298.15 K, x1 = 0.952	439
303.15 K, x1 = 0.801	138
313.15 K, x1 = 0.9	117
323.15 K, x1 = 0.952	81

CCCCCCCCCCCCCC[n+]1ccccc1.O=C([O-])C(O)c1ccccc1 + O
electrical conductivity [S/m], 101 kPa
Conditions	293.15 K	298.15 K	303.15 K	308.15 K	313.15 K
x1 = 6.85e-06	0.00248	0.00278	0.00309	0.0034	0.0037
x1 = 1.424e-05	0.00472	0.00529	0.00587	0.0065	0.0071
x1 = 2.126e-05	0.00671	0.0076	0.0084	0.0093	0.0101
x1 = 2.811e-05	0.0086	0.0097	0.0108	0.0122	0.0131
x1 = 3.46e-05	0.0103	0.0116	0.0129	0.0145	0.0157
x1 = 4.108e-05	0.0117	0.0131	0.0146	0.0161	0.0179
x1 = 4.811e-05	0.0129	0.0144	0.0161	0.0179	0.0198
x1 = 5.388e-05	0.0137	0.0154	0.0172	0.0191	0.0211
x1 = 5.982e-05	0.0145	0.0163	0.0182	0.0202	0.0224
x1 = 6.559e-05	0.0153	0.0172	0.0192	0.0213	0.0236
x1 = 7.081e-05	0.016	0.018	0.02	0.0223	0.0246
x1 = 7.604e-05	0.0167	0.0187	0.0209	0.0232	0.0258
x1 = 8.072e-05	0.0173	0.0194	0.0217	0.0241	0.0266

CCO + O + CCCCCCCCCCCCOS(=O)(=O)[O-].[Na+]
298 K, 100 kPa, frequency 0.001 MHz
Conditions	electrical conductivity [S/m]
x1 = 0.01596, x3 = 0	0.00025
x1 = 0.02563, x2 = 0.9744	0.00026
x1 = 0.04623, x2 = 0.9538	0.00029
x1 = 0.06864, x2 = 0.9314	0.00031
x1 = 0.1203, x2 = 0.8797	0.00025
x1 = 0.1463, x2 = 0.8537	0.00025

CC[S+](CC)CCOCCOCCOCCOCC[S+](CC)CC.N#C[N-]C#N.N#C[N-]C#N + CC[n+]1ccn(C)c1.N#C[N-]C#N + O=S(=O)([N-]S(=O)(=O)C(F)(F)F)C(F)(F)F.[Li+]
100 kPa, x1 = 0.2317, x2 = 0.6756
Conditions	electrical conductivity [S/m]
298 K	0.811
303 K	1.16
313 K	1.35
323 K	1.51
333 K	1.93
343 K	2.26

CCCCCC[N+]1(C)CCCC1.O=S(=O)([N-]S(=O)(=O)C(F)(F)F)C(F)(F)F + CCC[N+]1(C)CCCC1.O=S(=O)([N-]S(=O)(=O)C(F)(F)F)C(F)(F)F
101 kPa
Conditions	electrical conductivity, 313.15 K [S/m]	electrical conductivity, 353.15 K [S/m]	viscosity, 313.15 K [mPa·s]	viscosity, 353.15 K [mPa·s]
x1 = 0.25	0.581	–	38.6	–
x1 = 0.5	–	1.23	–	13.2
